According to publication PMC6843521, “Discrimination of Oviposition Deterrent Volatile β-Ionone by Odorant-Binding Proteins 1 and 4 in the Whitefly Bemisia tabaci” (Biomolecules, 2019):
Counter-ions that a name gives are not always drawn. Like-named read-outs stand apart in the source and are kept apart here.

Columns and labels:
[1] = target: T1, OBP1 (Bemisia tabaci, UniProt A0A1S6JPY5); experiment: Fluorescence competitive binding assay, recombinant OBP1 with 1-NPN probe
Procedure: (§1) N-Phenyl-1-naphthylamine (1-NPN), 4,4′-Dianilino-1,1′-binaphthyl-5,5′-disulfonic acid dipotassium salt (bis-ANS), β-ionone, α-ionone, and […] were diluted with chromatographic-grade methanol to a final concentration of 1 mmol·L^−1, and the protein was diluted with 50 mM Tris-HCl (pH 7.4) to a final concentration of 2 μmol·L^−1. When 1-NPN was used as fluorescent probe, the excitation wavelength of the fluorescence spectrophotometer was set to 337 nm, and the scanning range was 350−500 nm. When bis-ANS was used as fluorescent probe, the excitation wavelength of the fluorescence spectrophotometer was set to 295 nm, and the scanning range was 300−550 nm. The fluorescent probe was gradually added to the protein-containing quartz tube to make it close to saturation. According to the Scatchard equation [35], the binding dissociation constants K1-NPN of OBP1 and the fluorescent probe 1-NPN and Kbis-ANS of OBP4 and fluorescent probe bis-ANS were determined. Protein and fluorescent probes were added to the quartz dish (the final concentration was 2 μM), and ionone was gradually added to determine the binding ability of the protein and ionone, and the dissociation constant Ki was calculated using the formula: Ki = [IC50]/(1 + [L]/KL), where [IC50] is the concentration of the ligand at which the fluorescence intensity is reduced by half, [L] is the concentration of the free fluorescent probe, and KL is the binding dissociation constant of the protein and the fluorescent probe. N-Phenyl-1-naphthylamine (1-NPN, Chemical Abstract Service (CAS): 90-30-2), 4,4’-dianilino-1,1’-binaphthyl-5,5’-disulfonic acid dipotassium salt (bis-ANS, CAS: 65664-81-5), methanol (CAS: 67-56-1), α-ionone (CAS: 127-41-3), β-ionone (CAS: 14901-07-6), and dihydro-β-ionone (CAS: 17283-81-7) were purchased from Sigma-Aldrich (St. Louis, MO, USA).

[2] = target: T2, OBP4 (Bemisia tabaci, UniProt A0A1S6JPY9); experiment: Fluorescence competitive binding assay, recombinant OBP4 with bis-ANS probe
Procedure: as §1

[3] = target: T2, OBP4; experiment: Fluorescence competitive binding, OBP4 with 1-NPN as probe (Figure S2D); details: OBP4, 1-NPN as probe
Procedure: as §1

[4] = target: T1, OBP1; experiment: Fluorescence competitive binding, OBP1 with bis-ANS as probe (Figure S2C)
Procedure: as §1

[5] = test system: B. tabaci; details: cited from earlier work
[6] = test system: flea beetle; design: method as in Caceres et al. [10]; details: ref Caceres et al. [10]; cited from earlier work
[7] = test system: spider mite; design: method as in Caceres et al. [10]; details: ref Caceres et al. [10]; cited from earlier work
[8] = target: OBP8; design: method as in doi:10.1016/j.cropro.2009.10.001, PMID 19458158; details: B. tabaci OBP8; ref [9],[31]; cited from earlier work

T2 sequence (A0A1S6JPY9 entry or part of it): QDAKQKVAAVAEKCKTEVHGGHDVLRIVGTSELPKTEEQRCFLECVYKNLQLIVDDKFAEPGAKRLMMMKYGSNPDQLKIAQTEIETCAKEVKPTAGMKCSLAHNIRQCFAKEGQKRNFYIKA
T1 sequence (A0A1S6JPY5 entry or part of it): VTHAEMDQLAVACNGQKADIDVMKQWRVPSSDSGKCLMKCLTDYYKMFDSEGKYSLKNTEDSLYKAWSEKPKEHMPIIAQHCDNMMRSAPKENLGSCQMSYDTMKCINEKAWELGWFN

SMILES	binding ability (words) ([1]; OBP1, 1-NPN probe)	binding ability (words) [3]	binding ability (words) [4]	binding ability (words) ([2]; OBP4, bis-ANS probe)	IC50 [1]	IC50 [2]	also measured
c1ccc(Nc2cccc3ccccc23)cc1 [1-NPN, N-Phenyl-1-naphthylamine, reference compound]							Kd [1]: 3.38 µM
O=S(=O)(O)c1cccc2c(-c3ccc(Nc4ccccc4)c4c(S(=O)(=O)O)cccc34)ccc(Nc3ccccc3)c12 [bis-ANS, 4,4′-Dianilino-1,1′-binaphthyl-5,5′-disulfonic acid dipotassium salt, reference compound]							Kd ([2]; OBP4 2 μmol·L^−1, 50 mM Tris-HCl pH 7.4, excitation 295 nm, read-out: dissociation constant of fluorescent probe (Scatchard)): 2.68 µM
CC(=O)CCC1=C(C)CCCC1(C)C [dihydro-β-ionone]	hardly displaced the fluorescent probe	did not	did not	hardly displaced the fluorescent probe			IC50 ([1]; OBP1, 1-NPN probe, dash symbol of Table S2, read-out: IC50): > 50 µM; IC50 ([2]; OBP4, bis-ANS probe, dash symbol of Table S2, read-out: IC50): > 50 µM
CC(=O)/C=C/C1C(C)=CCCC1(C)C (stereo not drawn) [α-ionone]	weak binding	did not	did not	weak binding	40.1 µM	21.1 µM	binding ability (words) ([1]; OBP1, 1-NPN probe, listed as α-Ionone): weaker binding; ovipositioning repellent to whitefly ([5]; doses of 0.05 ng/μL and 0.5 ng/μL, ref [10]): weak ovipositioning repellent; binding ability (words) ([2]; OBP4, bis-ANS probe, listed as α-Ionone): weaker binding
CC(=O)/C=C/C1=C(C)CCCC1(C)C [β-ionone]		bonded well	bonded well		7.16 µM	5.14 µM	B. tabaci egg production ([5]; concentrations of 0.1 ng/μL and 0.5 ng/μL, ref Cáceres et al. [10]): significantly inhibit; oviposition deterrence to whiteflies ([5]; ref Caceres et al. [10]): significant oviposition deterrence; repellent effect [6]: strong repellent effect; repellent effect [7]: strong repellent effect; Ki [8]: 13.3 µM
